Source: patent publication US20260013501A1, “HERBICIDAL DERIVATIVES” (SYNGENTA CROP PROTECTION AG, priority 2022, published 2026)

Key:
Assay type in all cases: in vivo
Conditions in all cases: evaluated after 13 days
[1] = tested on: Echinochloa crus-galli (ECHCG); assay: Pre-emergence Test (Table B1), ECHCG
[2] = tested on: Ipomoea hederacea (IPOHE); assay: Pre-emergence Test (Table B1), IPOHE
[3] = tested on: Amaranthus palmeri (AMAPA); assay: Pre-emergence Test (Table B1), AMAPA
[4] = tested on: Amaranthus retoflexus (AMARE); assay: Pre-emergence Test (Table B1), AMARE
Zea mays (ZEAMX) [5] = assay: Pre-emergence Test (Table B1), ZEAMX
Zea mays (ZEAMX) [6] = assay: Post-emergence Test (Table B2), ZEAMX; design: key: 5-point damage scale: 5=81-100%, 4=61-80%, 3=41-60%, 2=21-40%, 1=0-20%
Method: Seeds of a variety of test species are sown in standard soil in pots (Ipomoea hederacea (IPOHE), Zea mays (ZEAMX), Echinochloa crus-galli (ECHCG), Amaranthus palmeri (AMAPA), (Amaranthus retoflexus (AMARE), and (Setaria faberi (SETFA)). After 8 days cultivation under controlled conditions in a glasshouse (at 24° C./16° C., day/night; 14 hours light; 65% humidity), the plants are sprayed with an aqueous spray solution derived from the formulation of the technical active ingredient in acetone/water (50:50) solution containing 0.5% Tween 20 (polyoxyethelyene sorbitan monolaurate, CAS RN 9005-64-5). Rate of application is shown in g/ha in the tables below. The test plants are then grown in a glasshouse under controlled conditions in a glasshouse (at 24° C./16° C., day/night; 14 hours light; 65% humidity) and watered twice daily. After 13 days the test is evaluated for the percentage damage caused to the plant. The biological activities are shown in the following table on a five-point scale (5=81-100%; 4=61-80%; 3=41-60%; 2=21-40%; 1=0-20%; -=not tested).

CCn1c(Cc2cc(C#N)ccn2)cc(=O)c(C(=O)O)c1-c1ccc(Cl)c(Cl)c1 [Compound 111, 6-[(4-cyano-2-pyridyl)methyl]-2-(3,4-dichlorophenyl)-1-ethyl-4-oxo-pyridine-3-carboxylic acid]
0: Pre-emergence Test, percentage damage caused to the plant (five-point scale), ECHCG ([1]; Rate 250 g/Ha)

CCn1c(Cc2ccsc2)cc(=O)c(C(=O)O)c1-c1ccc(Cl)c(Cl)c1 [Compound 51, 2-(3,4-dichlorophenyl)-1-ethyl-4-oxo-6-(3-thienylmethyl) pyridine-3-carboxylic acid]
0: Pre-emergence Test, percentage damage caused to the plant (five-point scale), IPOHE ([2]; Rate 1000 g/Ha) | Pre-emergence Test, percentage damage caused to the plant (five-point scale), AMAPA ([3]; Rate 1000 g/Ha) | Pre-emergence Test, percentage damage caused to the plant (five-point scale), AMARE ([4]; Rate 1000 g/Ha) | Pre-emergence Test, percentage damage caused to the plant (five-point scale), ZEAMX (Zea mays (ZEAMX) [5]; Rate 1000 g/Ha)

CCn1c(Cc2cc(OC)ncn2)cc(=O)c(C(=O)O)c1-c1ccc(Cl)c(Cl)c1 [Compound 100, 2-(3,4-dichlorophenyl)-1-ethyl-6-[(6-methoxypyrimidin-4-yl)methyl]-4-oxo-pyridine-3-carboxylic acid]
0: Pre-emergence Test, percentage damage caused to the plant (five-point scale), AMARE ([4]; Rate 250 g/Ha) | Pre-emergence Test, percentage damage caused to the plant (five-point scale), ZEAMX (Zea mays (ZEAMX) [5]; Rate 250 g/Ha) | Pre-emergence Test, percentage damage caused to the plant (five-point scale), ECHCG ([1]; Rate 250 g/Ha)

CCn1c(Cc2cccc(F)c2)cc(=O)c(C(=O)O)c1-c1ccc(Cl)c(Cl)c1 [Compound 37, 2-(3,4-dichlorophenyl)-1-ethyl 6-[(3-fluorophenyl)methyl]-4-oxo-pyridine-3-carboxylic acid]
0: Pre-emergence Test, percentage damage caused to the plant (five-point scale), IPOHE ([2]; Rate 1000 g/Ha) | Pre-emergence Test, percentage damage caused to the plant (five-point scale), AMAPA ([3]; Rate 1000 g/Ha) | Pre-emergence Test, percentage damage caused to the plant (five-point scale), AMARE ([4]; Rate 1000 g/Ha) | Pre-emergence Test, percentage damage caused to the plant (five-point scale), ZEAMX (Zea mays (ZEAMX) [5]; Rate 1000 g/Ha) | percentage damage caused to the plant, ZEAMX (Zea mays (ZEAMX) [6]; rate 1000 g/Ha)

CCn1c(Cc2ncc(SC)cn2)cc(=O)c(C(=O)O)c1-c1ccc(Cl)c(Cl)c1 [Compound 99, 2-(3,4-dichlorophenyl)-1-ethyl-6-[(5-methylsulfanylpyrimidin-2-yl)methyl]-4-oxo-pyridine-3-carboxylic acid]
0: Pre-emergence Test, percentage damage caused to the plant (five-point scale), IPOHE ([2]; Rate 250 g/Ha) | Pre-emergence Test, percentage damage caused to the plant (five-point scale), ZEAMX (Zea mays (ZEAMX) [5]; Rate 250 g/Ha) | Pre-emergence Test, percentage damage caused to the plant (five-point scale), ECHCG ([1]; Rate 250 g/Ha)

CCOC(=O)c1cccc(Cc2cc(=O)c(C(=O)O)c(-c3ccc(Cl)c(Cl)c3)n2CC)n1 [Compound 102, 2-(3,4-dichlorophenyl)-6-[(6-ethoxycarbonylpyridin-1-ium-2-yl)methyl]-1-ehtyl-4-oxo-pyridine-3-carboxylic acid; 2,2,2-trifluoroacetate]
0: Pre-emergence Test, percentage damage caused to the plant (five-point scale), IPOHE ([2]; Rate 1000 g/Ha) | Pre-emergence Test, percentage damage caused to the plant (five-point scale), AMAPA ([3]; Rate 1000 g/Ha) | Pre-emergence Test, percentage damage caused to the plant (five-point scale), AMARE ([4]; Rate 1000 g/Ha) | Pre-emergence Test, percentage damage caused to the plant (five-point scale), ZEAMX (Zea mays (ZEAMX) [5]; Rate 1000 g/Ha) | percentage damage caused to the plant, ZEAMX (Zea mays (ZEAMX) [6]; rate 1000 g/Ha)

CCn1c(Cc2csnc2C)cc(=O)c(C(=O)O)c1-c1ccc(Cl)c(Cl)c1 [Compound 150, 2-(3,4-dichlorophenyl)-1-ethyl-6-[(3-methylisothiazol-4-yl)methyl]-4-oxo-pyridine-3-carboxylic acid]
0: Pre-emergence Test, percentage damage caused to the plant (five-point scale), IPOHE ([2]; Rate 250 g/Ha) | Pre-emergence Test, percentage damage caused to the plant (five-point scale), ZEAMX (Zea mays (ZEAMX) [5]; Rate 250 g/Ha) | percentage damage caused to the plant, ZEAMX (Zea mays (ZEAMX) [6]; rate 250 g/Ha)

CCn1c(Cc2ccc(SC)cc2)cc(=O)c(C(=O)O)c1-c1ccc(Cl)c(Cl)c1 [Compound 28, 2-(3,4-dichlorophenyl)-1-ethyl-6-[(4-methylsulfanylphenyl)methyl]-4-oxo-pyridine-3-carboxylic acid]
0: Pre-emergence Test, percentage damage caused to the plant (five-point scale), IPOHE ([2]; Rate 1000 g/Ha) | Pre-emergence Test, percentage damage caused to the plant (five-point scale), AMAPA ([3]; Rate 1000 g/Ha) | Pre-emergence Test, percentage damage caused to the plant (five-point scale), AMARE ([4]; Rate 1000 g/Ha) | Pre-emergence Test, percentage damage caused to the plant (five-point scale), ZEAMX (Zea mays (ZEAMX) [5]; Rate 1000 g/Ha) | percentage damage caused to the plant, ZEAMX (Zea mays (ZEAMX) [6]; rate 1000 g/Ha)

CCn1c(Cc2ccc(OC)c(F)c2)cc(=O)c(C(=O)O)c1-c1ccc(Cl)c(Cl)c1 [Compound 83, 2-(3,4-dichlorophenyl)-1-ethyl-6-[(3-fluoro-4-methoxy-phenyl)methyl]-4-oxo-pyridine-3-carboxylic acid]
0: Pre-emergence Test, percentage damage caused to the plant (five-point scale), IPOHE ([2]; Rate 1000 g/Ha) | Pre-emergence Test, percentage damage caused to the plant (five-point scale), AMAPA ([3]; Rate 1000 g/Ha) | Pre-emergence Test, percentage damage caused to the plant (five-point scale), AMARE ([4]; Rate 1000 g/Ha) | Pre-emergence Test, percentage damage caused to the plant (five-point scale), ZEAMX (Zea mays (ZEAMX) [5]; Rate 1000 g/Ha)

CCn1c(Cc2cc(C)ncn2)cc(=O)c(C(=O)O)c1-c1ccc(Cl)c(Cl)c1 [Compound 128, 2-(3,4-dichlorophenyl)-1-ethyl-6-[(6-methylpyrimidin-4-yl)methyl]-4-oxo-pyridine-3-carboxylic acid]
0: Pre-emergence Test, percentage damage caused to the plant (five-point scale), ZEAMX (Zea mays (ZEAMX) [5]; Rate 250 g/Ha) | Pre-emergence Test, percentage damage caused to the plant (five-point scale), ECHCG ([1]; Rate 250 g/Ha) | percentage damage caused to the plant, ZEAMX (Zea mays (ZEAMX) [6]; rate 250 g/Ha)

CCn1c(Cc2ccc(OC(F)(F)F)cc2C)cc(=O)c(C(=O)O)c1-c1ccc(Cl)c(Cl)c1 [Compound 63, 2-(3,4-dichlorophenyl)-1-ethyl-6-[[2-methyl-4-(trifluoromethoxy)phenyl]methyl]-4-oxo-pyridine-3-carboxylic acid]
0: Pre-emergence Test, percentage damage caused to the plant (five-point scale), IPOHE ([2]; Rate 1000 g/Ha) | Pre-emergence Test, percentage damage caused to the plant (five-point scale), AMAPA ([3]; Rate 1000 g/Ha) | Pre-emergence Test, percentage damage caused to the plant (five-point scale), AMARE ([4]; Rate 1000 g/Ha) | Pre-emergence Test, percentage damage caused to the plant (five-point scale), ZEAMX (Zea mays (ZEAMX) [5]; Rate 1000 g/Ha)

CCn1c(Cc2cc(COC)cc(Cl)n2)cc(=O)c(C(=O)O)c1-c1ccc(Cl)c(Cl)c1 [Compound 103, 6-[[6-chloro-4-(methoxymethyl)-2-pyridyl]methyl]-2-(3,4-dichlorophenyl)-1-ethyl-4-oxo-pyridine-3-carboxylic acid]
0: Pre-emergence Test, percentage damage caused to the plant (five-point scale), IPOHE ([2]; Rate 1000 g/Ha) | Pre-emergence Test, percentage damage caused to the plant (five-point scale), AMAPA ([3]; Rate 1000 g/Ha) | Pre-emergence Test, percentage damage caused to the plant (five-point scale), AMARE ([4]; Rate 1000 g/Ha) | Pre-emergence Test, percentage damage caused to the plant (five-point scale), ZEAMX (Zea mays (ZEAMX) [5]; Rate 1000 g/Ha)

CCn1c(Cc2ccnc(Cl)c2)cc(=O)c(C(=O)O)c1-c1ccc(Cl)c(Cl)c1 [Compound 41, 6-[(2-chloro-4-pyridyl)methyl]-2-(3,4-dichlorophenyl)-1-ethyl-4-oxo-pyridine-3-carboxylic acid]
0: Pre-emergence Test, percentage damage caused to the plant (five-point scale), AMAPA ([3]; Rate 250 g/Ha) | Pre-emergence Test, percentage damage caused to the plant (five-point scale), AMARE ([4]; Rate 250 g/Ha) | Pre-emergence Test, percentage damage caused to the plant (five-point scale), ZEAMX (Zea mays (ZEAMX) [5]; Rate 250 g/Ha) | percentage damage caused to the plant, ZEAMX (Zea mays (ZEAMX) [6]; rate 250 g/Ha)

CCn1c(Cc2ncccn2)cc(=O)c(C(=O)O)c1-c1ccc(Cl)c(Cl)c1 [Compound 22, 2-(3,4-dichlorophenyl)-1-ethyl-4-oxo-6-(pyrimidin-2-ylmethyl)pyridine-3-carboxylic acid]
0: Pre-emergence Test, percentage damage caused to the plant (five-point scale), AMAPA ([3]; Rate 250 g/Ha) | Pre-emergence Test, percentage damage caused to the plant (five-point scale), AMARE ([4]; Rate 250 g/Ha) | Pre-emergence Test, percentage damage caused to the plant (five-point scale), ZEAMX (Zea mays (ZEAMX) [5]; Rate 250 g/Ha) | Pre-emergence Test, percentage damage caused to the plant (five-point scale), ECHCG ([1]; Rate 250 g/Ha)

CCn1c(Cc2cnc(Cl)cn2)cc(=O)c(C(=O)O)c1-c1ccc(Cl)c(Cl)c1 [Compound 143, 6-[(5-chloropyrazin-2-yl)methyl]-2-(3,4-dichlorophenyl)-1-ethyl-4-oxo-pyridine-3-carboxylic acid]
0: Pre-emergence Test, percentage damage caused to the plant (five-point scale), AMAPA ([3]; Rate 250 g/Ha) | Pre-emergence Test, percentage damage caused to the plant (five-point scale), ZEAMX (Zea mays (ZEAMX) [5]; Rate 250 g/Ha) | Pre-emergence Test, percentage damage caused to the plant (five-point scale), ECHCG ([1]; Rate 250 g/Ha) | percentage damage caused to the plant, ZEAMX (Zea mays (ZEAMX) [6]; rate 250 g/Ha)

CCn1c(Cc2cc(C(F)(F)F)ccn2)cc(=O)c(C(=O)O)c1-c1ccc(Cl)c(Cl)c1 [Compound 18, 2-(3,4-dichlorophenyl)-1-ethyl-4-oxo-6-[[4-(trifluoromethyl)-2-pyridyl]methyl]pyridine-3-carboxylic acid]
0: Pre-emergence Test, percentage damage caused to the plant (five-point scale), ECHCG ([1]; Rate 1000 g/Ha)

CCn1c(Cc2nccnc2C(=O)O)cc(=O)c(C(=O)O)c1-c1ccc(Cl)c(Cl)c1 [Compound 49, 3-[[5-carboxy-6-(3,4-dichlorophenyl)-1-ethyl-4-oxo-2-pyridyl]methyl]pyrazine-2-carboxylic acid]
0: Pre-emergence Test, percentage damage caused to the plant (five-point scale), IPOHE ([2]; Rate 250 g/Ha) | Pre-emergence Test, percentage damage caused to the plant (five-point scale), AMARE ([4]; Rate 250 g/Ha) | Pre-emergence Test, percentage damage caused to the plant (five-point scale), ZEAMX (Zea mays (ZEAMX) [5]; Rate 250 g/Ha)

CCn1c(Cc2nccc(OC)n2)cc(=O)c(C(=O)O)c1-c1ccc(Cl)c(Cl)c1 [Compound 20, 2-(3,4-dichlorophenyl)-1-ethyl-6-[(4-methoxypyrimidin-2-yl)methyl]-4-oxo-pyridine-3-carboxylic acid]
0: Pre-emergence Test, percentage damage caused to the plant (five-point scale), AMAPA ([3]; Rate 250 g/Ha) | Pre-emergence Test, percentage damage caused to the plant (five-point scale), AMARE ([4]; Rate 250 g/Ha) | Pre-emergence Test, percentage damage caused to the plant (five-point scale), ZEAMX (Zea mays (ZEAMX) [5]; Rate 250 g/Ha) | Pre-emergence Test, percentage damage caused to the plant (five-point scale), ECHCG ([1]; Rate 250 g/Ha)

CCn1c(Cc2cncc(F)c2)cc(=O)c(C(=O)O)c1-c1ccc(Cl)c(Cl)c1 [Compound 42, 2-(3,4-dichlorophenyl)-1-ethyl-6-[(5-fluoro-3-pyridyl)methyl]-4-oxo-pyridine-3-carboxylic acid]
0: Pre-emergence Test, percentage damage caused to the plant (five-point scale), AMAPA ([3]; Rate 250 g/Ha) | Pre-emergence Test, percentage damage caused to the plant (five-point scale), ZEAMX (Zea mays (ZEAMX) [5]; Rate 250 g/Ha) | Pre-emergence Test, percentage damage caused to the plant (five-point scale), ECHCG ([1]; Rate 250 g/Ha) | percentage damage caused to the plant, ZEAMX (Zea mays (ZEAMX) [6]; rate 250 g/Ha)
